Target: T1, recombinant human CXCR2 (Homo sapiens, UniProt P25025)
T1 construct: TEV protease site; Gal4-VP16 transcription factor
T1 sequence (P25025 1-360): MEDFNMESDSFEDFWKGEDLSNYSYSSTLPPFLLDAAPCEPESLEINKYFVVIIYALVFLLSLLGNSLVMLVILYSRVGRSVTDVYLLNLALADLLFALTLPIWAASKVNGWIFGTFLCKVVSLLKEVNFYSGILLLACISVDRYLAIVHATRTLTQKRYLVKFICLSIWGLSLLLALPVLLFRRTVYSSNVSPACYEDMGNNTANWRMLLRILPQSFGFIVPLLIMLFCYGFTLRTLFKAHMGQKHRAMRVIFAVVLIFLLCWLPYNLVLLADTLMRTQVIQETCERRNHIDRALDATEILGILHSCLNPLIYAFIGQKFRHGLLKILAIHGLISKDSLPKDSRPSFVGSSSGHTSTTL
Assay: CXCR2 Tango assay
Format: cell-based
Conditions: mean pIC50 of multiple test results; stimulated with 80 nM hCXCL1; reporter gene blue/green emission ratio; read-out: pIC50 (CXCR2 Tango assay) (converted)
Method in brief: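 Mean pIC50 comes from sigmoidal fits of the blue/green (460/530 nm) CCF4-AM ratio, normalized between hCXCL1-stimulated and DMSO controls. Compounds in 10-point dose response were incubated overnight at 37 °C with recombinant human CXCR2 Tango cells (~10,000/well) and 80 nM hCXCL1, with reporter read-out via arrestin-TEV release of Gal4-VP16.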

IC50: ≤ 10 nM
SMILES: CC1=CCC[C@H]1NC(=O)Nc1ccc(Cl)c(S(=O)(=O)[C@@]2(C)CCOC2)c1O [Compound 195, 1-(4-chloro-2-hydroxy-3-(((S)-3-methyltetrahydrofuran-3-yl)sulfonyl)phenyl)-3-((R)-2-methylcyclopent-2-en-1-yl)urea]
